Experimental findings from PubChem BioAssay AID330 (DTP/NCI, 2004) are described below.

The test system of the assay is P388 leukemia ip, CD2F1 mice, survival T/C. Put plainly: NCI In Vivo Anticancer Drug Screen. Data for tumor model P388 Leukemia (intraperitoneal) in CD2F1 (CDF1) mice. The following applies: endpoint: median survival time, higher = longer survival. The method in brief:
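Mice carrying the transplanted tumor received test compound or vehicle. Survival was recorded in each group, and the value is the treated-group measurement divided by that of the vehicle-treated control group.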

The mark [1] stands for this setting: dose: 50.0 mg/kg/injection, schedule: Q01DX005 (ip), vehicle: saline.
[2] abbreviates: dose: 100.0 mg/kg/injection, schedule: Q01DX005 (ip), vehicle: saline.
The mark [3] stands for this setting: dose: 200.0 mg/kg/injection, schedule: Q01DX005 (ip), vehicle: saline.
Setting [4] is: dose: 12.5 mg/kg/injection, schedule: Q01DX009 (ip), vehicle: Klucel (hydroxypropylcellulose) (HPC).
Setting [5] is: dose: 50.0 mg/kg/injection, schedule: Q01DX009 (ip), vehicle: Klucel (hydroxypropylcellulose) (HPC).
[6] abbreviates: dose: 100.0 mg/kg/injection, schedule: Q01DX009 (ip), vehicle: Klucel (hydroxypropylcellulose) (HPC).
The mark [7] stands for this setting: dose: 200.0 mg/kg/injection, schedule: Q01DX009 (ip), vehicle: Klucel (hydroxypropylcellulose) (HPC).
Setting [8] is: dose: 100.0 mg/kg/injection, schedule: Q04DX003 (ip), vehicle: saline with Tween-80.
[9] abbreviates: dose: 200.0 mg/kg/injection, schedule: Q04DX003 (ip), vehicle: saline with Tween-80.
The mark [10] stands for this setting: dose: 25.0 mg/kg/injection, schedule: Q01DX009 (ip), vehicle: Klucel (hydroxypropylcellulose) (HPC).
Where [11] appears, read: dose: 400.0 mg/kg/injection, schedule: Q04DX003 (ip), vehicle: saline with Tween-80.
[12] abbreviates: dose: 100.0 mg/kg/injection, schedule: Q04DX003 (ip), vehicle: Klucel (hydroxypropylcellulose) (HPC).
Where [13] appears, read: dose: 200.0 mg/kg/injection, schedule: Q04DX003 (ip), vehicle: Klucel (hydroxypropylcellulose) (HPC).
The mark [14] stands for this setting: dose: 400.0 mg/kg/injection, schedule: Q04DX003 (ip), vehicle: Klucel (hydroxypropylcellulose) (HPC).

Where “and” joins values, the source holds several entries; their conditions need not be identical. Identical values can stand only once. Toxic doses and inconclusive results are not listed.

On to `Clc1nn2nnnc2c2ccccc12`, for which the T/C runs as follows: (dose: 5.0 mg/kg/injection, schedule: Q01DX009 (ip), vehicle: saline) 100 % of control and 96 % of control; (dose: 10.0 mg/kg/injection, schedule: Q01DX009 (ip), vehicle: saline) 95 % of control and 97 % of control; (dose: 20.0 mg/kg/injection, schedule: Q01DX009 (ip), vehicle: saline) 89 % of control and 94 % of control; (dose: 40.0 mg/kg/injection, schedule: Q01DX009 (ip), vehicle: saline) 100 % of control and 91 % of control.
On to `OCC1(c2cccnc2)OCCO1`, for which the T/C was 99 % of control under setting [1], 101 % of control under setting [2] and 101 % of control under setting [3].
`COC(=O)C(C)CP(=O)(OC)OC` (configuration not stated): the T/C under setting [1] was 99 % of control, the T/C under setting [2] was 97 % of control and the T/C under setting [3] is 99 % of control.
Take `COc1c(C=O)c2c(c(OC)c1OC)-c1ccc(OC)c(=O)cc1[C@@H](NC(C)=O)CC2`: the T/C (dose: 0.39 mg/kg/injection, schedule: Q01DX009 (ip), vehicle: Klucel (hydroxypropylcellulose) (HPC)) is 151 % of control; the T/C (dose: 0.78 mg/kg/injection, schedule: Q01DX009 (ip), vehicle: Klucel (hydroxypropylcellulose) (HPC)) is 154 % of control; the T/C (dose: 1.56 mg/kg/injection, schedule: Q01DX009 (ip), vehicle: Klucel (hydroxypropylcellulose) (HPC)) is 160 % of control and 175 % of control; the T/C (dose: 3.12 mg/kg/injection, schedule: Q01DX009 (ip), vehicle: Klucel (hydroxypropylcellulose) (HPC)) is 180 % of control and 194 % of control; the T/C (dose: 6.25 mg/kg/injection, schedule: Q01DX009 (ip), vehicle: Klucel (hydroxypropylcellulose) (HPC)) is 205 % of control; the T/C under setting [4] was 102 % of control.
Regarding `CC1(C)Cc2oc(=Nc3ccccc3)n(-c3ccccc3)c(=O)c2C1`, the T/C is, setting by setting: under setting [5], 105 % of control; under setting [6], 114 % of control; under setting [7], 102 % of control.
For the compound `CCC1(c2ccccc2)C(C#N)C(=O)NC(=O)C1C#N` (configuration not stated), the T/C reads like this: (dose: 60.0 mg/kg/injection, schedule: Q01DX005 (ip), vehicle: saline with Tween-80) 106 % of control; (dose: 120.0 mg/kg/injection, schedule: Q01DX005 (ip), vehicle: saline with Tween-80) 99 % of control; (dose: 240.0 mg/kg/injection, schedule: Q01DX005 (ip), vehicle: saline with Tween-80) 101 % of control.
`Cc1ccc(-c2nc3ncnc(N)c3[nH]2)cc1`: the T/C (dose: 6.25 mg/kg/injection, schedule: Q04DX003 (ip), vehicle: saline with Tween-80) is 100 % of control; the T/C (dose: 12.5 mg/kg/injection, schedule: Q04DX003 (ip), vehicle: saline with Tween-80) was 100 % of control; the T/C (dose: 25.0 mg/kg/injection, schedule: Q04DX003 (ip), vehicle: saline with Tween-80) was 100 % of control and 107 % of control and 114 % of control; the T/C (dose: 50.0 mg/kg/injection, schedule: Q04DX003 (ip), vehicle: saline with Tween-80) was 102 % of control and 113 % of control; the T/C under setting [8] was 108 % of control and 124 % of control; the T/C under setting [9] is 116 % of control.
As to `Cc1ccc(C(=O)N/N=C/c2cccc(C(N)=S)c2)cc1`, the T/C runs as follows: (dose: 100.0 mg/kg/injection, schedule: Q01DX001 (ip), vehicle: saline) 88 % of control; (dose: 200.0 mg/kg/injection, schedule: Q01DX001 (ip), vehicle: saline) 87 % of control; (dose: 400.0 mg/kg/injection, schedule: Q01DX001 (ip), vehicle: saline) 86 % of control.
For the compound `CCOC(=O)CNC(=O)NN(c1ccccc1)C1CCS(=O)(=O)C1` (configuration not stated), the T/C reads like this: (dose: 50.0 mg/kg/injection, schedule: Q01DX005 (ip), vehicle: saline with Tween-80) 100 % of control; (dose: 100.0 mg/kg/injection, schedule: Q01DX005 (ip), vehicle: saline with Tween-80) 90 % of control; (dose: 200.0 mg/kg/injection, schedule: Q01DX005 (ip), vehicle: saline with Tween-80) 94 % of control.
In the case of `COC1/C=C/OC2(C)Oc3c(C)c(O)c4c(c3C2=O)C(=O)c2cnc(nc2C4=O)/C(C)=C\C=C\C(C)C(O)C(C)C(O)C(C)C(OC(C)=O)C1C` (configuration not stated), the T/C is 93 % of control (dose: 25.0 mg/kg/injection, schedule: Q01DX009 (ip), vehicle: other); 107 % of control (dose: 50.0 mg/kg/injection, schedule: Q01DX009 (ip), vehicle: other); 116 % of control (dose: 100.0 mg/kg/injection, schedule: Q01DX009 (ip), vehicle: other).
Regarding `CC1(C)CC(O)(Cc2ccccc2)C(=O)c2ccccc21` (configuration not stated), the T/C by setting is: under setting [10], 96 % of control; under setting [5], 95 % of control; under setting [6], 98 % of control; under setting [7], 98 % of control; (dose: 400.0 mg/kg/injection, schedule: Q01DX009 (ip), vehicle: Klucel (hydroxypropylcellulose) (HPC)) 86 % of control.
`O=C(O)/C=C(O)/C=C/c1ccccc1`: the T/C is 92 % of control under setting [8], 101 % of control under setting [9] and 101 % of control under setting [11].
In the case of `CN(C)c1ccc(/C=C/C(=O)c2nc3ccccc3[nH]2)cc1`, the T/C was 100 % of control under setting [12], 100 % of control under setting [13] and 86 % of control under setting [14].
As for `O=C(CC(=O)Oc1ccc(Cl)cc1Cl)Oc1ccc(Cl)cc1Cl`, the T/C reads like this: under setting [8], 95 % of control; under setting [9], 91 % of control; under setting [11], 100 % of control.
On to `O=S(=O)(O)c1ccc2nccn2c1`, for which the T/C is 100 % of control (dose: 100.0 mg/kg/injection, schedule: Q01DX001 (ip), vehicle: suspension in saline); 89 % of control (dose: 200.0 mg/kg/injection, schedule: Q01DX001 (ip), vehicle: suspension in saline); 100 % of control (dose: 400.0 mg/kg/injection, schedule: Q01DX001 (ip), vehicle: suspension in saline).
As to `CCN(CC)CCN1C(=O)CN=C(c2ccc[nH]2)c2cc(Cl)ccc21`, the T/C was 90 % of control (dose: 100.0 mg/kg/injection, schedule: Q01DX009 (ip), vehicle: saline with Tween-80); 100 % of control under setting [8]; 100 % of control under setting [9]; 95 % of control (dose: 400.0 mg/kg/injection, schedule: Q01DX009 (ip), vehicle: saline with Tween-80); 95 % of control under setting [11].
Take `Cc1ccc(S(=O)(=O)OC[C@H]2CCCC[C@H]2COS(=O)(=O)c2ccc(C)cc2)cc1`: the T/C reads like this: under setting [12], 113 % of control; under setting [13], 114 % of control; under setting [14], 119 % of control.
Regarding `C=C1C(=O)O[C@@H]2[C@H]1CC[C@H](C)[C@]1(O)CCC(=O)[C@@]21C`, the T/C is 112 % of control under setting [4]; 114 % of control under setting [10]; 115 % of control (dose: 44.0 mg/kg/injection, schedule: Q01DX009 (ip), vehicle: Klucel (hydroxypropylcellulose) (HPC)); 117 % of control under setting [5]; 117 % of control (dose: 67.0 mg/kg/injection, schedule: Q01DX009 (ip), vehicle: Klucel (hydroxypropylcellulose) (HPC)); 117 % of control under setting [6]. For the same compound, where the note is “dose: 150.0 mg/kg/injection, schedule: Q01DX009 (ip), vehicle: Klucel (hydroxypropylcellulose) (HPC)”, the T/C was 122 % of control.
Regarding `N#CC1C(=O)NC(=O)C(C#N)C1c1c(Cl)cccc1Cl` (configuration not stated), the T/C by setting is: under setting [5], 101 % of control; under setting [6], 99 % of control; under setting [7], 99 % of control.
